{"source": "the supplement of paper PMC10307832", "experiment_in_all_cases": "relative viability (nuclei count vs DMSO), 5 days (fraction); higher = more cells survive", "key": {"LK-2": {"system": "LK-2", "how_it_was_run": "(§1)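 For relative viability, nuclei counts in treated wells were divided by those in vehicle wells. Lung cancer cell lines had been pin-tool dosed in 1536-well plates the day after seeding and cultured for 5 days, then fixed and stained in one step (final 0.05% Triton X-100, 1% formaldehyde, 1 ug/ml Hoechst) and imaged at 4×. Doses were one drug alone or a fixed anchor-drug dose plus five library-drug doses (not always all listed) in √10 steps, and values are duplicate-plate medians.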"}, "ABC-1": {"system": "ABC-1", "how_it_was_run": "as §1"}, "NCI-H460": {"system": "NCI-H460", "how_it_was_run": "as §1"}, "NCI-H322M": {"system": "NCI-H322M", "how_it_was_run": "as §1"}, "NCI-H727": {"system": "NCI-H727", "how_it_was_run": "as §1"}, "NCI-H2023": {"system": "NCI-H2023", "how_it_was_run": "as §1"}, "NCI-H1651": {"system": "NCI-H1651", "how_it_was_run": "as §1"}, "EKVX": {"system": "EKVX", "how_it_was_run": "as §1"}, "NCI-H838": {"system": "NCI-H838", "how_it_was_run": "as §1"}, "LU99A": {"system": "LU99A", "how_it_was_run": "as §1"}, "BEN": {"system": "BEN", "how_it_was_run": "as §1"}}}
{"smiles": "CCNC(=O)c1noc(-c2cc(C(C)C)c(O)cc2O)c1-c1ccc(CN2CCOCC2)cc1", "note": "[Luminespib] + COc1cc2c(Oc3ccc(NC(=O)C4(C(=O)Nc5ccc(F)cc5)CC4)cc3F)ccnc2cc1OCCCN1CCOCC1 [Foretinib] (partner 0.25 µM)", "values": [{"measurement": "relative viability", "setting": "LK-2; first compound 0.002 µM", "result": 1.66}, {"measurement": "relative viability", "setting": "LK-2; first compound 0.006325 µM", "result": 1.44}, {"measurement": "relative viability", "setting": "LK-2; first compound 0.02 µM", "result": 0.604}, {"measurement": "relative viability", "setting": "LK-2; first compound 0.06325 µM", "result": 0.858}, {"measurement": "relative viability", "setting": "LK-2; first compound 0.2 µM", "result": 0.88}, {"measurement": "relative viability", "setting": "ABC-1; first compound 0.002 µM", "result": 1.08}, {"measurement": "relative viability", "setting": "ABC-1; first compound 0.006325 µM", "result": 0.881}, {"measurement": "relative viability", "setting": "ABC-1; first compound 0.02 µM", "result": 0.859}, {"measurement": "relative viability", "setting": "ABC-1; first compound 0.06325 µM", "result": 0.583}, {"measurement": "relative viability", "setting": "ABC-1; first compound 0.2 µM", "result": 0.206}, {"measurement": "relative viability", "setting": "NCI-H460; first compound 0.002 µM", "result": 1.01}, {"measurement": "relative viability", "setting": "NCI-H460; first compound 0.006325 µM", "result": 1.07}, {"measurement": "relative viability", "setting": "NCI-H460; first compound 0.02 µM", "result": 0.957}, {"measurement": "relative viability", "setting": "NCI-H460; first compound 0.06325 µM", "result": 0.0285}, {"measurement": "relative viability", "setting": "NCI-H460; first compound 0.2 µM", "result": 0.0276}, {"measurement": "relative viability", "setting": "NCI-H322M; first compound 0.002 µM", "result": 0.932}, {"measurement": "relative viability", "setting": "NCI-H322M; first compound 0.006325 µM", "result": 0.998}, {"measurement": "relative viability", "setting": "NCI-H322M; first compound 0.02 µM", "result": 0.795}, {"measurement": "relative viability", "setting": "NCI-H322M; first compound 0.06325 µM", "result": 0.323}, {"measurement": "relative viability", "setting": "NCI-H322M; first compound 0.2 µM", "result": 0.3}, {"measurement": "relative viability", "setting": "NCI-H727; first compound 0.002 µM", "result": 1.04}, {"measurement": "relative viability", "setting": "NCI-H727; first compound 0.006325 µM", "result": 0.834}, {"measurement": "relative viability", "setting": "NCI-H727; first compound 0.02 µM", "result": 0.669}, {"measurement": "relative viability", "setting": "NCI-H727; first compound 0.06325 µM", "result": 0.219}, {"measurement": "relative viability", "setting": "NCI-H727; first compound 0.2 µM", "result": 0.332}, {"measurement": "relative viability", "setting": "NCI-H2023; first compound 0.002 µM", "result": 0.739}, {"measurement": "relative viability", "setting": "NCI-H2023; first compound 0.006325 µM", "result": 0.884}, {"measurement": "relative viability", "setting": "NCI-H2023; first compound 0.02 µM", "result": 0.438}, {"measurement": "relative viability", "setting": "NCI-H2023; first compound 0.06325 µM", "result": 0.123}, {"measurement": "relative viability", "setting": "NCI-H2023; first compound 0.2 µM", "result": 0.0586}, {"measurement": "relative viability", "setting": "NCI-H1651; first compound 0.002 µM", "result": 0.837}, {"measurement": "relative viability", "setting": "NCI-H1651; first compound 0.006325 µM", "result": 0.718}, {"measurement": "relative viability", "setting": "NCI-H1651; first compound 0.02 µM", "result": 0.826}, {"measurement": "relative viability", "setting": "NCI-H1651; first compound 0.06325 µM", "result": 0.309}, {"measurement": "relative viability", "setting": "NCI-H1651; first compound 0.2 µM", "result": 0.208}, {"measurement": "relative viability", "setting": "EKVX; first compound 0.002 µM", "result": 0.75}, {"measurement": "relative viability", "setting": "EKVX; first compound 0.006325 µM", "result": 0.453}, {"measurement": "relative viability", "setting": "EKVX; first compound 0.06325 µM", "result": 0.815}, {"measurement": "relative viability", "setting": "EKVX; first compound 0.2 µM", "result": 0.108}, {"measurement": "relative viability", "setting": "NCI-H838; first compound 0.002 µM", "result": 1.08}, {"measurement": "relative viability", "setting": "NCI-H838; first compound 0.006325 µM", "result": 1.06}, {"measurement": "relative viability", "setting": "NCI-H838; first compound 0.02 µM", "result": 1.07}, {"measurement": "relative viability", "setting": "NCI-H838; first compound 0.06325 µM", "result": 0.582}, {"measurement": "relative viability", "setting": "NCI-H838; first compound 0.2 µM", "result": 0.148}, {"measurement": "relative viability", "setting": "LU99A; first compound 0.002 µM", "result": 0.821}, {"measurement": "relative viability", "setting": "LU99A; first compound 0.006325 µM", "result": 0.758}, {"measurement": "relative viability", "setting": "LU99A; first compound 0.02 µM", "result": 0.527}, {"measurement": "relative viability", "setting": "LU99A; first compound 0.06325 µM", "result": 0.186}, {"measurement": "relative viability", "setting": "LU99A; first compound 0.2 µM", "result": 0.175}, {"measurement": "relative viability", "setting": "BEN; first compound 0.002 µM", "result": 0.63}, {"measurement": "relative viability", "setting": "BEN; first compound 0.006325 µM", "result": 0.71}, {"measurement": "relative viability", "setting": "BEN; first compound 0.02 µM", "result": 0.362}]}
